# Test results from publication PMC10138723, “Cytotoxic Steroidal Saponins Containing a Rare Fructosyl from the Rhizomes of Paris polyphylla var. latifolia” (International Journal of Molecular Sciences, 2023).
# Read-outs that look alike come from different tables or passages of the source.
# Assays:
# [1] = system: EGFR/PI3K/Akt/mTOR signaling pathway in LN229 cells; assay: Western blot of EGFR/PI3K/Akt/mTOR signaling in LN229; format: cell-based, human; conditions: LN229, 24 h
# Excerpt: (§1) Primary antibodies against Bax (50599-2-Ig), Bcl-2 (26593-1-AP), Akt (10176-2-AP), p-Akt (28731-1-AP), PI3K (20584-1-AP), p-PI3K (60225-1-Ig), mTOR (28273-1-AP), p-mTOR (67778-1-Ig), Cytochrome C (10993-1-AP), β-actin (20536-1-AP), HRP-Goat-Anti-Mouse IgG (H+L) (SA00001-1), and HRP-Goat-Anti-Rabbit IgG (H+L) (SA00001-2) were obtained from Proteintech Group, Inc. (Rosemont, USA). Primary antibodies against EGFR (WL0682a), p-EGFR (WL03432) and cleaved caspase 3 (WL01992) were obtained from Wanleibio (Shenyang, China). The LN229 cells were treated with various concentrations of 1 or 0.1% DMSO for 24 h. A BCA Protein Assay Kit was used to measure the protein concentration, then equal amounts of protein samples were separated by 10% sodium dodecyl sulfate–polyacrylamide gel electrophoresis and transferred to a polyvinylidene fluoride membrane (Millipore, Burlington, MA, USA). The membranes were blocked for 2 h in Tris-buffered saline with PBST buffer, containing 5% skim milk. Then, the membranes were incubated with the appropriate primary antibodies overnight at 4 ℃. Then, the membranes were washed with PBST and reacted with a secondary horseradish peroxidase-conjugated antibody. Image Lab 5.2.1 (Biorad Laboratories, Hercules, CA, USA) was used to analyze the blots after detection using enhanced chemiluminescence (Millipore). Data analyses were performed using the GraphPad Prism software (San Diego, CA, USA).
# [2] = system: LN229 (human glioma cells); assay: CCK-8 cytotoxic assay, LN229; format: cell-based; conditions: read-out: IC50 ± SD, LN229
# Excerpt: (§2) U251 (human glioma cells), HeLa (human cervical cancer cells), and HepG2 (human hepatic cancer cells) were purchased from the Chinese Academy of Sciences (China), and Capan-2 (human pancreatic cancer cells) were obtained from Nanjing Cobioer Biosicences (Nanjing, China). American Type Culture Collection (ATCC) provided LN229 (human glioma cells). NHA (Gibco Human Astrocytes) and Gibco Astrocyte Medium (DMEM, N-2 Supplement, One Shot fetal bovine serum) were purchased from ThermoFisher Scientific (Waltham, MA, USA). The LN229, U251, HepG2 and HeLa cells were cultured in DMEM (Procell, Wuhan, China). The Capan-2 cells were cultured in RPMI-1640 (Procell, Wuhan, China) and NHA cells were cultured in Gibco Astrocyte Medium, supplemented with 10% FBS (Solarbio, Beijing, China) and 1% Penicillin–Streptomycin (Elabscience Biotechnology Co.,Ltd, Wuhan, China) at 37 °C with 5% CO2.
# (§3) In the exponential phase of the growth, five tumor cell lines and one normal human astrocytes were plated onto 96-well plates at a concentration of 8000 cells/well for 24 h. Compounds 1–12 were prepared to various concentrations (64, 32, 16, 8, 4, 2, 1 and 0.5 µM in medium containing less than 0.1% DMSO) and incubated in 96-well plates (each concentration in four-fold wells) for 24 h. Cell viability was determined according to reported assay methods using the commercial CCK-8 kit (Elabscience Biotechnology Co., Ltd., Wuhan, China). The optical density (OD) of each well was measured with an AMR-100 microplate reader at 450 nm (Allsheng Corporation, Hangzhou, China). Cytotoxicity emerged as the value of the drug concentration at the inhibition of cell growth by 50% (IC50). The experiments were conducted for three independent replicates, and Doxorubicin was used as the positive control.
# [3] = system: five cancer cell lines (LN229, U251, Capan-2, HeLa, HepG2); assay: CCK-8 cytotoxic assay, summary over five cancer cell lines; format: cell-based; conditions: Homo sapiens, range over compounds 1 and 2 and five cancer cell lines, read-out: IC50 values (range) against five cancer cell lines
# Excerpt: as §2
# In the exponential phase of the growth, five tumor cell lines and one normal human astrocytes were plated onto 96-well plates at a concentration of 8000 cells/well for 24 h. […] Cell viability was determined according to reported assay methods using the commercial CCK-8 kit (Elabscience Biotechnology Co., Ltd., Wuhan, China). The optical density (OD) of each well was measured with an AMR-100 microplate reader at 450 nm (Allsheng Corporation, Hangzhou, China). […]
# [4] = system: HepG2 (human hepatic cancer cells); assay: CCK-8 cytotoxic assay, HepG2; format: cell-based; conditions: read-out: IC50 ± SD, HepG2
# Excerpt: as §2, §3
# [5] = system: NHA (normal human astrocytes); assay: CCK-8 cytotoxic assay, NHA normal astrocytes; format: cell-based; conditions: Astrocyte, read-out: IC50 ± SD, NHA
# Excerpt: as §2, §3
# [6] = system: U251 (human glioma cells); assay: CCK-8 cytotoxic assay, U251; format: cell-based; conditions: read-out: IC50 ± SD, U251
# Excerpt: as §2, §3
# [7] = system: Bax/Bcl-2, cleaved caspase 3, cytochrome c in LN229 cells; assay: Western blot of apoptosis-related proteins in LN229; format: cell-based, human; conditions: LN229, 24 h, compared with the control group
# Excerpt: as §1
# [8] = system: Capan-2 (human pancreatic cancer cells); assay: CCK-8 cytotoxic assay, Capan-2; format: cell-based; conditions: read-out: IC50 ± SD, Capan-2
# Excerpt: as §2, §3
# [9] = system: HeLa (human cervical cancer cells); assay: CCK-8 cytotoxic assay, HeLa; format: cell-based; conditions: read-out: IC50 ± SD, HeLa
# Excerpt: as §2, §3
# glioma cells LN229 = assay: Flow cytometry analysis for apoptosis (Annexin V-FITC/PI); format: cell-based, human; conditions: different concentrations, 24 h
# Protocol: Flow cytometry was used to analyze the effect of 1 on the apoptosis of glioma cells LN229. Cells were treated with different concentrations of 1 for 24 h. Then, the cells were collected and washed twice with cold PBS for five minutes (1000 rpm). The cells were analyzed for apoptosis by flow cytometry (BD, Franklin Lakes, NJ, USA) using the Annexin V-FITC/PI assay kit.
# [10] = LN-229, LN229 cells, CCK-8, 24 h
# [11] = NHA normal human astrocytes, CCK-8, 24 h
Structure (SMILES),"IC50 [2, 10] [µM]","IC50 ([4]; HepG2 cells, CCK-8, 24 h) [µM]","IC50 [5, 11] [µM]","IC50 ([6]; U-251, U251 cells, CCK-8, 24 h) [µM]","IC50 ([8]; Capan-2 cells, CCK-8, 24 h) [µM]","IC50 ([9]; HeLa cells, CCK-8, 24 h) [µM]",further results
"CC1CCC2(OC1)OC1CC3C4CC=C5CC(OC6OC(COC7(CO)OC(CO)C(O)C7O)C(O)C(O)C6OC6OC(C)C(O)C(O)C6O)CCC5(C)C4CCC3(C)C1C2C [Compound 1, diosgenin-3-O-β-D-fructofuranosyl-(1→6)-[α-L-rhamnopyranosyl-(1 → 2)]-β-D-glucopyranoside]",4.18 ± 0.31,4.32 ± 0.51,> 50,3.85 ± 0.44,3.26 ± 0.34,3.3 ± 0.38,expression level of p-Akt [1]: decreased; expression level of p-PI3K [1]: decreased; expression level of p-mTOR [1]: decreased; expression of total EGFR [1]: no evident effect; phosphorylation levels of EGFR [1]: significantly suppressed; IC50 [3]: 3.26 to 22.3 µM; expression of Bax/Bcl-2 [7]: significantly increased; expression of cleaved caspase 3 [7]: significantly increased; expression of cytochrome c [7]: significantly increased; ratio of apoptotic LN229 (Annexin V+/PI−) (glioma cells LN229): increased; ratio of living cells (Annexin V−/PI−) (glioma cells LN229): decreased
"CC1CCC2(OC1)OC1CC3C4CC=C5CC(OC6OC(COC7(CO)OC(CO)C(O)C7O)C(OC7OC(CO)C(O)C7O)C(O)C6OC6OC(C)C(O)C(O)C6O)CCC5(C)C4CCC3(C)C1C2C [Compound 2, diosgenin-3-O-β-D-fructofuranosyl-(1 → 6)-[α-L-arabinofuranosyl-(1→4)]-[α-L-rhamnopyranosyl-(1→2)]-β-D-glucopyranoside]",15.4 ± 0.47,18.8 ± 1.25,> 50,15.8 ± 0.65,20.4 ± 1.05,22.3 ± 1.33,IC50 [3]: 3.26 to 22.3 µM
C=C1C(=O)OC2CC3C4CC=C5CC(OC6OC(CO)C(OC7OC(CO)C(O)C7O)C(O)C6OC6OC(C)C(O)C(O)C6O)CCC5(C)C4CCC3(C)C12 (stereo not drawn) [Compound 3],> 50,> 50,> 50,> 50,> 50,> 50,
"CC(=O)C1=CCC2C3CC=C4C[C@@H](O[C@@H]5O[C@H](CO)[C@@H](O[C@@H]6O[C@@H](CO)[C@H](O)[C@H]6O)[C@H](O)[C@H]5O[C@@H]5O[C@@H](C)[C@H](O)[C@@H](O)[C@H]5O)CC[C@]4(C)C3CC[C@]12C (stereo partly drawn) [Compound 4, pregna-5,16-diene-3β-ol-20-one-3-O-α-L-arabinofuranosyl-(1 → 4)-[α-L-rhamnopyranosyl(1 → 2)]-β-D-glucopyranoside]",> 50,> 50,> 50,> 50,> 50,> 50,
"C=C1C(=O)OC2CC3C4CC=C5CC(OC6OC(CO)C(OC7OC(C)C(O)C(O)C7O)C(O)C6OC6OC(C)C(O)C(O)C6O)CCC5(C)C4CCC3(C)C12 (stereo not drawn) [Compound 5, chonglouoside SL-8]",> 50,> 50,> 50,> 50,> 50,> 50,
"C=C1C(=O)OC2CC3C4CC=C5CC(OC6OC(CO)C(O)C(O)C6OC6OC(C)C(O)C(O)C6O)CCC5(C)C4CCC3(C)C12 (stereo not drawn) [Compound 6, pallidifloside D]",,,,,,,"IC50 ([2]; LN-229, 24 h): > 50 µM; IC50 ([4]; HepG2, 24 h): > 50 µM; IC50 ([5]; Homo sapiens, 24 h): > 50 µM; IC50 ([6]; U-251, 24 h): > 50 µM; IC50 ([8]; Capan-2, 24 h): > 50 µM; IC50 ([9]; HeLa, 24 h): > 50 µM"
"Cc1c(CCC(C)COC2OC(CO)C(O)C(O)C2O)ccc2c1C1(C)CCC3C(CC=C4CC(OC5OC(CO)C(OC6OC(C)C(OC7OC(C)C(O)C(O)C7O)C(O)C6O)C(O)C5OC5OC(C)C(O)C(O)C5O)CCC43C)C1C2 (stereo not drawn) [Compound 7, parispseudoside A]",> 50,> 50,> 50,> 50,> 50,> 50,
"Cc1c(CCC(C)COC2OC(CO)C(O)C(O)C2O)ccc2c1C1(C)CCC3C(CC=C4CC(OC5OC(CO)C(OC6OC(CO)C(O)C6O)C(O)C5OC5OC(C)C(O)C(O)C5O)CCC43C)C1C2 [Compound 8, 3-O-α-L-arabinofuranosyl-(1 → 4)-[α-L-rhamnopyranosyl (1 → 2)]-β-D-glucopyranosyl-β-D-chacotriosyl-26-O-β-D-glucopyranoside]",> 50,> 50,> 50,> 50,> 50,> 50,
"Cc1c(CCC(C)COC2OC(CO)C(O)C(O)C2O)ccc2c1C1(C)CCC3C(CC=C4CC(OC5OC(CO)C(OC6OC(C)C(O)C(O)C6O)C(O)C5OC5OC(C)C(O)C(O)C5O)CCC43C)C1C2 (stereo not drawn) [Compound 9, aethioside A]",> 50,> 50,> 50,> 50,> 50,> 50,
"CC(=O)C1=CCC2C3CC=C4C[C@@H](O[C@@H]5O[C@H](CO)[C@@H](O)[C@H](O)[C@H]5O[C@@H]5O[C@@H](C)[C@H](O)[C@@H](O)[C@H]5O)CC[C@]4(C)C3CC[C@]12C (stereo partly drawn) [Compound 10, spongipregnolosides A]",> 50,> 50,> 50,> 50,> 50,> 50,
"CC(=O)C1=CC[C@H]2[C@@H]3CC=C4C[C@@H](O[C@@H]5O[C@H](CO)[C@@H](O[C@@H]6O[C@@H](C)[C@H](O)[C@@H](O)[C@H]6O)[C@H](O)[C@H]5O[C@@H]5O[C@@H](C)[C@H](O)[C@@H](O)[C@H]5O)CC[C@]4(C)[C@H]3CC[C@]12C [Compound 11, hypoglaucin H]",> 50,> 50,> 50,> 50,> 50,> 50,
"Cc1c(CCC(C)COC2OC(CO)C(O)C(O)C2O)ccc2c1C1(C)CCC3C(CC=C4CC(OC5OC(CO)C(O)C(O)C5OC5OC(C)C(O)C(O)C5O)CCC43C)C1C2 (stereo not drawn) [Compound 12, parispseudoside B]",> 50,> 50,> 50,> 50,> 50,> 50,
"COc1cccc2c1C(=O)c1c(O)c3c(c(O)c1C2=O)C[C@@](O)(C(=O)CO)C[C@@H]3O[C@H]1C[C@H](N)[C@H](O)[C@H](C)O1 [Doxorubicin, reference compound]",0.35 ± 0.05,0.21 ± 0.02,> 50,0.21 ± 0.04,0.18 ± 0.02,0.18 ± 0.02,
